# According to patent US20220395549A1, “COMPOSITIONS OF THE OLEA EUROPAEA V. SYLVESTRIS WITH ANTIMICROBIAL EFFICACY” (TAPROGGE GMBH, priority 2019, published 2022):
# Test system: S. aureus ATCC 6538
# Assay: quantitative suspension assay of mono-substances
# Type: cell-based, Staphylococcus aureus
# Protocol: A stock solution was prepared by adding 0.1 ml methanol to 10.48 mg of hydroxytyrosol. After dissolving of the compound, the solution was quantitatively transferred into 4.9 ml water for injection (WFI), effective concentration of hydroxytyrosol: 2.0 mg/ml.
# Using the stock solution, five (5) concentrations of hydroxytyrosol in a geometric series of 2 mg hydroxytyrosol/ml to 0.125 mg hydroxytyrosol/ml were tested in a quantitative suspension assay.
# 2 ml of the stock solution and the dilutions (V1 to V4), respectively, and a methanol-solution of 2% as a positive control were inoculated with 0.1 ml of a test suspension of S. aureus ATCC 6538, adjusted to about 2.0×10^5 CFU/0.1 ml, resulting in about 100,000 CFU/ml in the individual assays.
# Samples (0.1 ml) were then taken at t 0, 12, 30, and 60 minutes as well as t 24 48, and 72 hours after inoculation and culturing at between 20-25° C., and were diluted with 0.9 ml of 0.9% NaCl solution. The samples were plated on blood agar plates, and incubated up to 5 days at between 30-35° C.
# A stock solution was prepared at a concentration of 2 mg/ml of oleocanthal. The compound was dissolved by in ethanol (99.8%) and WFI was added.
# Using the stock solution, concentrations of oleocanthal in a geometric series of 1 mg oleocanthal/ml to 0.125 mg oleocanthal/ml were tested in a quantitative suspension assay.
# 2 ml of the stock solution and the dilutions (V1 to V4), respectively, and a ethanol-solution of 2.85% as a positive control were inoculated with 0.055 ml of a test suspension of S. aureus ATCC 6538, adjusted to about 3.6×10^5 CFU/0.1 ml, resulting in about 99,000 CFU/ml in the individual assays.
# A stock solution was prepared at a concentration of 1 mg/ml of oleacin. The compound was dissolved by in ethanol (99.8%) and WFI was added.
# Using the stock solution, concentrations of oleacin at 0.25 mg oleacin/ml and 0.125 mg oleacin/ml were tested in a quantitative suspension assay.
# 2 ml of the stock solution and the dilutions (V1 and V2), respectively, and a ethanol-solution of 0.44% as a positive control were inoculated with 0.055 ml of a test suspension of S. aureus ATCC 6538, adjusted to about 3.5×10^5 CFU/0.1 ml, resulting in about 99,000 CFU/ml in the individual assays.
# A stock solution was prepared by adding 0.1 ml chloroform to 25 mg of uvaol. After dissolving of the compound, the solution was quantitatively transferred into 12.4 ml water for injection (WFI), effective concentration of uvaol: 2.0 mg/ml.
# Using the stock solution, five (5) concentrations of uvaol in a geometric series of 2 mg uvaol/ml to 0.125 mg uvaol/ml were tested in a quantitative suspension assay.
# 2 ml of the stock solution and the dilutions (V1 to V4), respectively, and a chloroform-solution of 0.8% as a positive control were inoculated with 0.1 ml of a test suspension of S. aureus ATCC 6538, adjusted to about 2.0×10^5 CFU/0.1 ml, resulting in about 100,000 CFU/ml in the individual assays.
# A stock solution was prepared by adding 0.1 ml chloroform to 10.45 mg of erythrodiol. After dissolving of the compound, the solution was quantitatively transferred into 4.9 ml water for injection (WFI), effective concentration of erythrodiol: 2.0 mg/ml.
# 2 ml of the stock solution and the dilutions (V1 to V4), respectively, and a chloroform-solution of 2% as a positive control were inoculated with 0.1 ml of a test suspension of S. aureus ATCC 6538, adjusted to about 3.6×10^5 CFU/0.1 ml, resulting in about 100.000 CFU/ml in the individual assays.
structure (smiles),measurement,setting,value
C[C@H]1[C@H](C)CC[C@]2(CO)CC[C@]3(C)C(=CC[C@@H]4[C@@]5(C)CC[C@H](O)C(C)(C)[C@@H]5CC[C@]43C)[C@H]12 [uvaol],Number of CFUs,"0.125 Uva/ml, t 0 min, initial cell load 2.0 × 10^5 CFU/ml",6.3 × 10^4 CFU/ml
same,Number of CFUs,"0.125 Uva/ml, t 12 min, initial cell load 2.0 × 10^5 CFU/ml",5.7 × 10^4 CFU/ml
same,Number of CFUs,"0.125 Uva/ml, t 30 min, initial cell load 2.0 × 10^5 CFU/ml",7.6 × 10^4 CFU/ml
same,Number of CFUs,"0.125 Uva/ml, t 60 min, initial cell load 2.0 × 10^5 CFU/ml",6.6 × 10^4 CFU/ml
same,Number of CFUs,"0.125 Uva/ml, t 24 h, initial cell load 2.0 × 10^5 CFU/ml",4.7 × 10^3 CFU/ml
same,Number of CFUs,"0.125 Uva/ml, t 48 h, initial cell load 2.0 × 10^5 CFU/ml",4.2 × 10^3 CFU/ml
same,Number of CFUs,"0.125 Uva/ml, t 72 h, initial cell load 2.0 × 10^5 CFU/ml",8.2 × 10^2 CFU/ml
same,Number of CFUs,"0.25 Uva/ml, t 0 min, initial cell load 2.0 × 10^5 CFU/ml",5.3 × 10^4 CFU/ml
same,Number of CFUs,"0.25 Uva/ml, t 12 min, initial cell load 2.0 × 10^5 CFU/ml",8.1 × 10^4 CFU/ml
same,Number of CFUs,"0.25 Uva/ml, t 30 min, initial cell load 2.0 × 10^5 CFU/ml",5.3 × 10^4 CFU/ml
same,Number of CFUs,"0.25 Uva/ml, t 60 min, initial cell load 2.0 × 10^5 CFU/ml",5.7 × 10^4 CFU/ml
same,Number of CFUs,"0.25 Uva/ml, t 24 h, initial cell load 2.0 × 10^5 CFU/ml",<100 CFU/ml
same,Number of CFUs,"0.25 Uva/ml, t 48 h, initial cell load 2.0 × 10^5 CFU/ml",<100 CFU/ml
same,Number of CFUs,"0.25 Uva/ml, t 72 h, initial cell load 2.0 × 10^5 CFU/ml",<100 CFU/ml
same,Number of CFUs,"0.5 Uva/ml, t 0 min, initial cell load 2.0 × 10^5 CFU/ml",7.0 × 10^4 CFU/ml
same,Number of CFUs,"0.5 Uva/ml, t 12 min, initial cell load 2.0 × 10^5 CFU/ml",7.8 × 10^4 CFU/ml
same,Number of CFUs,"0.5 Uva/ml, t 30 min, initial cell load 2.0 × 10^5 CFU/ml",7.6 × 10^4 CFU/ml
same,Number of CFUs,"0.5 Uva/ml, t 60 min, initial cell load 2.0 × 10^5 CFU/ml",5.7 × 10^4 CFU/ml
same,Number of CFUs,"0.5 Uva/ml, t 24 h, initial cell load 2.0 × 10^5 CFU/ml",<100 CFU/ml
same,Number of CFUs,"0.5 Uva/ml, t 48 h, initial cell load 2.0 × 10^5 CFU/ml",<100 CFU/ml
same,Number of CFUs,"0.5 Uva/ml, t 72 h, initial cell load 2.0 × 10^5 CFU/ml",<100 CFU/ml
same,Number of CFUs,"1.0 Uva/ml, t 0 min, initial cell load 2.0 × 10^5 CFU/ml",7.8 × 10^4 CFU/ml
same,Number of CFUs,"1.0 Uva/ml, t 12 min, initial cell load 2.0 × 10^5 CFU/ml",7.8 × 10^4 CFU/ml
same,Number of CFUs,"1.0 Uva/ml, t 30 min, initial cell load 2.0 × 10^5 CFU/ml",7.4 × 10^4 CFU/ml
same,Number of CFUs,"1.0 Uva/ml, t 60 min, initial cell load 2.0 × 10^5 CFU/ml",5.9 × 10^4 CFU/ml
same,Number of CFUs,"1.0 Uva/ml, t 24 h, initial cell load 2.0 × 10^5 CFU/ml",<100 CFU/ml
same,Number of CFUs,"1.0 Uva/ml, t 48 h, initial cell load 2.0 × 10^5 CFU/ml",<100 CFU/ml
same,Number of CFUs,"1.0 Uva/ml, t 72 h, initial cell load 2.0 × 10^5 CFU/ml",<100 CFU/ml
same,Number of CFUs,"2.0 Uva/ml, t 0 min, initial cell load 2.0 × 10^5 CFU/ml",7.2 × 10^4 CFU/ml
same,Number of CFUs,"2.0 Uva/ml, t 12 min, initial cell load 2.0 × 10^5 CFU/ml",5.9 × 10^4 CFU/ml
same,Number of CFUs,"2.0 Uva/ml, t 30 min, initial cell load 2.0 × 10^5 CFU/ml",7.0 × 10^4 CFU/ml
same,Number of CFUs,"2.0 Uva/ml, t 60 min, initial cell load 2.0 × 10^5 CFU/ml",7.0 × 10^4 CFU/ml
same,Number of CFUs,"2.0 Uva/ml, t 24 h, initial cell load 2.0 × 10^5 CFU/ml",<100 CFU/ml
same,Number of CFUs,"2.0 Uva/ml, t 48 h, initial cell load 2.0 × 10^5 CFU/ml",<100 CFU/ml
same,Number of CFUs,"2.0 Uva/ml, t 72 h, initial cell load 2.0 × 10^5 CFU/ml",<100 CFU/ml
CC=C(C=O)C(CC=O)CC(=O)OCCc1ccc(O)c(O)c1 (stereo in doubt) [oleacin],Number of CFUs,"0.125 Oci/ml, t 0 min, initial cell load 9.9 × 10^4 CFU/ml",4.3 × 10^3 CFU/ml
same,Number of CFUs,"0.125 Oci/ml, t 12 min, initial cell load 9.9 × 10^4 CFU/ml",<100 CFU/ml
same,Number of CFUs,"0.125 Oci/ml, t 30 min, initial cell load 9.9 × 10^4 CFU/ml",<100 CFU/ml
same,Number of CFUs,"0.125 Oci/ml, t 60 min, initial cell load 9.9 × 10^4 CFU/ml",<100 CFU/ml
same,Number of CFUs,"0.125 Oci/ml, t 24 h, initial cell load 9.9 × 10^4 CFU/ml",<100 CFU/ml
same,Number of CFUs,"0.125 Oci/ml, t 48 h, initial cell load 9.9 × 10^4 CFU/ml",<100 CFU/ml
same,Number of CFUs,"0.125 Oci/ml, t 72 h, initial cell load 9.9 × 10^4 CFU/ml",<100 CFU/ml
same,Number of CFUs,"0.25 Oci/ml, t 0 min, initial cell load 9.9 × 10^4 CFU/ml",1.8 × 10^3 CFU/ml
same,Number of CFUs,"0.25 Oci/ml, t 12 min, initial cell load 9.9 × 10^4 CFU/ml",<100 CFU/ml
same,Number of CFUs,"0.25 Oci/ml, t 30 min, initial cell load 9.9 × 10^4 CFU/ml",<100 CFU/ml
same,Number of CFUs,"0.25 Oci/ml, t 60 min, initial cell load 9.9 × 10^4 CFU/ml",<100 CFU/ml
same,Number of CFUs,"0.25 Oci/ml, t 24 h, initial cell load 9.9 × 10^4 CFU/ml",<100 CFU/ml
same,Number of CFUs,"0.25 Oci/ml, t 48 h, initial cell load 9.9 × 10^4 CFU/ml",<100 CFU/ml
same,Number of CFUs,"0.25 Oci/ml, t 72 h, initial cell load 9.9 × 10^4 CFU/ml",<100 CFU/ml
same,"antimicrobial effect, summary in words",detection limit of the assay 100 CFU/ml,immediate effect at the concentrations tested
